{"source": "patent US11905518B2", "about": "“Small auxin upregulated (SAUR) gene for the improvement of root system architecture, waterlogging tolerance, drought resistance and yield in plants and methods of uses” (Curators of the University of Missouri, priority 2018, dated 2024)", "test_system": "NILs (NIL147_aa and NIL147_AA)", "test": "Waterlogging treatment of NILs with auxin biosynthesis inhibitor PCIB", "format": "in vivo, soybean", "method": "FIGS. 7A-7C depict involvement of auxin in the regulation of waterlogging tolerance. Complementation of qWL_Gm03 by auxin biosynthesis inhibitor in waterlogging tolerance (FIG. 7A) and induction of adventitious roots (FIG. 7B). The two lines were waterlogging treated for 10 days using water (control) and 10 μM p-Chlorophen-oxyisobutyric acid (PCIB: an auxin biosynthesis inhibitor). Then plants were allowed to recover for 7 days (left) before evaluation for flooding injury scores and adventitious root rating. Data shown are means±standard deviations of 9 biological replicates (soil pots) and each replicate contains 2 to 3 plants. Student's-t-test was used to compare means between NIL147_aa and NIL147_AA. FIG. 7C Expression of GmARF20 in the roots during waterlogging treatment. GmARF20 in soybean is the closest homologue of AtARF19 in Arabidopsis (Ha et al. 2013). Data shown are means±standard deviations of two biological replicates and each replicate contains 10 plants.\nWaterlogging test were performed in both field and greenhouse. Field tests for RIL populations and fine-mapping were conducted at the Lee Farm at the DRC in Portageville, MO The evaluation of NILs were performed at four locations, including DRC (MO), Rhower Research Station (AR), Delta Research and Extension Center (MS) and Red River Research Station (LA). The soil types of the four locations were Sharkey clay (very fine, smectitic, thermic Chromic Epiaquerts). Each lines were planted in hill plots at a density of 8 seeds per plot with 1 meter spacing with 2 to 3 replications. Waterlogging treatments were imposed by flood irrigation. Water was pumped on the field when 80% of the lines within each maturity block were at the R1 growth stage (Fehr and Caviness 1977). […]\nAuxin generally promotes root initiation and elongation (reviewed by Overvoorde et al. 2010). Therefore, the involvement of auxin in waterlogging tolerance was further evaluated by the treatment of an auxin biosynthesis inhibitor: p-Chlorophen-oxyisobutyric acid (PCIB) on the NILs (NIL147_aa and NIL147_AA) during waterlogging. […]", "key": {"[1]": {"conditions": "10 μM PCIB vs water control, waterlogging treated for 10 days, 7 days recovery, NIL147_aa and NIL147_AA"}}, "data": [{"smiles": "CC(C)(Oc1ccc(Cl)cc1)C(=O)O", "note": "[PCIB, p-Chlorophen-oxyisobutyric acid]", "values": [{"measurement": "genotypic differences of qWL_Gm03 in waterlogging tolerance performance and formation of adventitious/aerial roots", "setting": "10 μM PCIB during waterlogging, NIL147_aa vs NIL147_AA", "result": "complement the genotypic differences"}, {"measurement": "formation of adventitious/aerial roots (adventitious root rating)", "setting": "[1]", "result": "significantly impair"}, {"measurement": "waterlogging tolerance (flooding injury scores)", "setting": "[1]", "result": "significantly impair"}]}]}
